The text below walks through data of ChEMBL document CHEMBL3227979, “11-Oxo-11H-pyrido[2,1-b]quinazoline-8-carboxylic acid, an orally active antiallergy agent” (1979).

Test [1] has as its system Rattus norvegicus. In words: Antiallergic activity in rat assessed as inhibition of ovalbumin-induced passive cutaneous anaphylaxis at 0.5 mg/kg, iv dosed along with ovalbumin challenge relative to control. It is filed as functional.
The subject of test [2] is Rattus norvegicus. The experiment in a line: Antiallergic activity in iv dosed rat assessed as inhibition of ovalbumin-induced passive cutaneous anaphylaxis dosed along with ovalbumin challenge. It is filed as functional. The settings on record: read-out: ID50 (the source's name).
The test system of test [3] is Rattus norvegicus. In words: Antiallergic activity in iv dosed rat assessed as inhibition of antigen-induced passive cutaneous anaphylaxis. Type of test: functional.
The subject of test [4] is Rattus norvegicus. In words: Antiallergic activity in po dosed rat assessed as inhibition of ovalbumin-induced passive cutaneous anaphylaxis pretreated for 10 to 15 mins followed by ovalbumin challenge. Type of test: functional. The settings on record: for ED50: read-out: ID50 (the source's name).
Test [5] relates to Rattus norvegicus. In words: Antiallergic activity in po dosed rat assessed as inhibition of antigen-induced passive cutaneous anaphylaxis. It is filed as functional.
For a further test, the species on record is Cavia porcellus. In words: Antagonist activity at histamine receptor in guinea pig ileum assessed as reduction in histamine-induced contractions up to 0.1 mM. It is filed as tissue-based.
Test [6] has as its system Rattus norvegicus. In words: Antiallergic activity in rat assessed as inhibition of ovalbumin-induced passive cutaneous anaphylaxis at 5 mg/kg, iv dosed along with ovalbumin challenge relative to control. Type of test: functional.

SMILES strings stand for the structures. Active and inactive are the calls of the source. The rule behind the calls is not given here.

By inhibition in vivo is commonly meant the share of the control response that was lost under treatment. Take `O=C(O)c1ccc2nc3cc4ccccc4cc3c(=O)n2c1`: the inhibition in vivo at 0.5 mg/kg in the test with Rattus norvegicus [1] was 100%. The results for the ED50 in the test with Rattus norvegicus [2], in the test on Rattus norvegicus [3] and in the test with Rattus norvegicus [5] were 0.1 mg/kg, 0.015 mg/kg and < 0.1 mg/kg, respectively. Besides, the ID50 entry in the test with Rattus norvegicus [4] is “inactive”. Further, the inhibition entry in the test filed under Cavia porcellus is “inactive”.
Take `O=C(O)c1ccn2c(=O)c3ccccc3nc2c1`: the inhibition in vivo at 0.5 mg/kg in the test on Rattus norvegicus [1] came out at 21%.
Regarding `O=C(O)c1ccc2nc(O)cc(=O)n2c1`, the inhibition in vivo at 5 mg/kg in the test on Rattus norvegicus [6] is 26%.
`O=C(O)c1cccn2c(=O)c3ccccc3nc12`: the inhibition entry in the test on Rattus norvegicus [1] was “inactive”.
With `O=C([O-])c1cc(=O)c2c(OCC(O)COc3cccc4oc(C(=O)[O-])cc(=O)c34)cccc2o1.[Na+].[Na+]` [CROMOLYN SODIUM], the ED50 with Rattus norvegicus [2] turned out to be 1 mg/kg. The ID50 entry in the test with Rattus norvegicus [4] was “inactive”.
Regarding `Cc1cc(=O)n2cc(C(=O)O)ccc2n1`, in the test on Rattus norvegicus [1], the inhibition result was “inactive”.
As to `O=C1c2ccccc2S(=O)(=O)c2cc(-c3nn[nH]n3)ccc21` [DOXANTRAZOLE], the ED50 with Rattus norvegicus [2] was 1.5 mg/kg; with Rattus norvegicus [4], 5 mg/kg.
Take `O=C(O)c1cccn2c(=O)c3cc4ccccc4cc3nc12`: in the test with Rattus norvegicus [1], the inhibition entry is “inactive”.
As for `O=C(O)c1ccc2nc3c(c(=O)n2c1)CCCC3`, in the test on Rattus norvegicus [1], the inhibition entry is “inactive”.
Consider `Cl.O=C(O)c1ccc2nc3ccccc3c(=O)n2c1`, for which the inhibition in vivo at 0.5 mg/kg in the test with Rattus norvegicus [1] turned out to be 45%. In addition, the ED50 with Rattus norvegicus [2] was determined as 0.5 mg/kg; in the test with Rattus norvegicus [4] it was 2.5 mg/kg. The inhibition result in the test listed under Cavia porcellus is “inactive”.
